In article PMC7083880 (Nature Communications, 2020):

Columns and labels:
[1] = tested on: nonsense-mediated mRNA decay (NMD) in Calu-6 cells; experiment: NMD efficiency: p53 mRNA / GAPDH mRNA by RT-PCR; assay type: cell-based, human; conditions: 24 h; for Ratio of p53 mRNA to GAPDH mRNA: 600µM
Procedure: Source data are provided as a Source Data file.
Total RNA was purified from Calu-6 cells after 24 h of treatment.
(§1) RNA was purified using RNazol (MRC) according to the manufacturer’s instructions. 1/5 of the RNA preparation was used for reverse-transcription (RT) PCR (RT-PCR) using Superscript II (Life Technologies) for 2 h at 42 °C in the presence of random hexamers. The resulting cDNAs were PCR amplified in the presence of dCTP(α^33P) (Perkin Elmer) with the following primers: GAPDH mRNA (sense: 5′-[…]-3′; antisense: 5′-[…]-3′), p53 mRNA (sense: 5′-[…]-3′; antisense: 5′-[…]-3′), p21 mRNA (sense: 5′-[…]-3′; antisense: 5′-[…]-3′). PCR products were quantified with Personal Molecular Imager and QuantityOne quantification software (Bio-Rad).

[2] = tested on: p53 target gene p21 in Calu-6 cells; experiment: p21 mRNA level by quantitative RT-PCR, Calu-6; assay type: cell-based, human
Excerpt: The three leftmost lanes show twofold serial dilutions of untreated HeLa cell extract. The molecular weight is indicated to the left of each gel. b Schematic representation of the construct used to measure the function of p53. The construct carries a cDNA encoding the firefly luciferase under a promoter having two p53-responsive elements (underlined). […] The level of p21 mRNA is related to the amount of functional p53 protein synthesized in the cell. The results presented in panels b and c are representative of at least two independent experiments., p-values (p) were calculated using Student’s t-test. Source data are provided as a Source Data file.
Although DAP clearly promoted the synthesis of full-length proteins from UGA-nonsense-mutation-containing mRNAs, it was necessary to ascertain that the readthrough protein was functional. […] The first involved measuring the transcriptional activity of the p53 readthrough protein in Calu-6 cells transfected with an expression vector carrying the cDNA encoding firefly luciferase under the control of a promoter with two p53-responsive elements (Fig. 2b)[33]. Upon DMSO treatment, only basal luciferase activity was detected, reflecting promoter leakage (Fig. 2c). […] The second assay used the p53 target gene p21 (ref. [44]).
as §1

Row | SMILES | NMD inhibition, in words ([1]; both tested concentrations) | Level of endogenous p21 mRNA, in words [2] | Level of p21 mRNA (DMSO = 1) ([2]; 6.25µM, average) | Level of p21 mRNA (DMSO = 1) ([2]; 6.25µM, experiment 1) | Level of p21 mRNA (DMSO = 1) ([2]; 6.25µM, experiment 2) | Level of p21 mRNA (DMSO = 1) ([2]; 25µM, average) | Level of p21 mRNA (DMSO = 1) ([2]; 25µM, experiment 1) | Level of p21 mRNA (DMSO = 1) ([2]; 25µM, experiment 2) | Level of p21 mRNA (DMSO = 1) ([2]; 25µM, experiment 3) | Ratio of p53 mRNA to GAPDH mRNA ([1]; average) | Ratio of p53 mRNA to GAPDH mRNA ([1]; experiment 1) | Ratio of p53 mRNA to GAPDH mRNA ([1]; experiment 2) | Increase in p53 mRNA [1] [fold] | Level of p21 mRNA (DMSO = 1) ([2]; 600µM, average) | Level of p21 mRNA (DMSO = 1) ([2]; 600µM, experiment 1) | Level of p21 mRNA (DMSO = 1) ([2]; 600µM, experiment 2) | Level of p21 mRNA (DMSO = 1) ([2]; 600µM, experiment 3)
1 | Nc1nc(N)c2[nH]cnc2n1 [DAP, 2,6-diaminopurine] | failed to inhibit NMD significantly | increase significantly | 1.751 | 2.112 | 1.8 | 2.148 | 1.8674 | 2.071 | 2.507 | – | – | – | – | – | – | – | –
2 | CN[C@@H]1[C@@H](O)[C@@H](O[C@@H]2[C@@H](O)[C@H](O[C@H]3O[C@H]([C@@H](C)O)[C@@H](O)[C@H](O)[C@H]3N)[C@@H](N)C[C@H]2N)OC[C@]1(C)O [G418, reference compound] | – | – | – | – | – | 1.18 | 1.069 | 1.178 | 1.295 | 0.3943 | 0.4107 | 0.3778 | 1.8 | 1.145 | 0.7456 | 1.569 | 1.121
